Experimental data: ChEMBL document CHEMBL4699496, “Exploring efficacy of natural-derived acetylphenol scaffold inhibitors for α-glucosidase: Synthesis, in vitro and in vivo biochemical studies” (Bioorg Med Chem Lett, 2020)
pIC50, pKi: −log10 of the molar value. Calls of active or inactive are those of the source. No cut-off for these calls is given here.

Experiments:
[1] = Inhibition of alpha-glucosidase (unknown origin); set-up: species or system Homo sapiens; settings: for pIC50: read-out: IC50
Homo sapiens [2] = species on record: Homo sapiens; assay: Binding affinity to alpha-glucosidase (unknown origin) assessed as change in gibbs free energy at 298 K by Van't Hoff equation analysis
Homo sapiens [3] = species on record: Homo sapiens; assay: Binding affinity to alpha-glucosidase (unknown origin) assessed as binding constant at 298 K
Rattus norvegicus [4] = species on record: Rattus norvegicus; assay: Inhibition of alpha-glucosidase in rat everted intestinal sleeves assessed as reduction in glucose concentration within intestinal sleeves at 0.173 mM measured for 5 to 90 mins; format: tissue-based; settings: Intestine, time min 5-90
Homo sapiens [5] = species on record: Homo sapiens; assay: Binding affinity to alpha-glucosidase (unknown origin) assessed as hydrogen bonding interactions by measuring change in entropy at 304 K by Van't Hoff equation analysis
Homo sapiens [6] = species on record: Homo sapiens; assay: Non-competitive inhibition of alpha-glucosidase (unknown origin) assessed as decrease in Vmax with constant Km at 0.0 to 2.5 uM using p-NPG as substrate by Lineweaver-Burk plot analysis; settings: dose microM 0.0-2.5
[7] = Binding affinity to alpha-glcosidase (unknown origin) using p-NPG as substrate; set-up: species or system Homo sapiens
Homo sapiens [8] = species on record: Homo sapiens; assay: Binding affinity to alpha-glucosidase (unknown origin) assessed as fluorescence quenching at 0.33 to 3.66 uM by fluorescence spectral analysis; settings: dose microM 0.33-3.66
Homo sapiens [9] = species on record: Homo sapiens; assay: Binding affinity to alpha-glucosidase (unknown origin) assessed as Stern-Volmer quenching constant at 298 K
Homo sapiens [10] = species on record: Homo sapiens; assay: Binding affinity to alpha-glucosidase (unknown origin) assessed as Stern-Volmer quenching constant at 304 K
Homo sapiens [11] = species on record: Homo sapiens; assay: Binding affinity to alpha-glucosidase (unknown origin) assessed as Stern-Volmer quenching constant at 310 K
Homo sapiens [12] = species on record: Homo sapiens; assay: Binding affinity to alpha-glucosidase (unknown origin) assessed as binding constant at 304 K
Homo sapiens [13] = species on record: Homo sapiens; assay: Binding affinity to alpha-glucosidase (unknown origin) assessed as binding constant at 310 K
Homo sapiens [14] = species on record: Homo sapiens; assay: Binding affinity to alpha-glucosidase (unknown origin) assessed as hydrophobic interactions by measuring change in enthalpy at 304 K by Van't Hoff equation analysis
Homo sapiens [15] = species on record: Homo sapiens; assay: Binding affinity to alpha-glucosidase (unknown origin) assessed as change in gibbs free energy at 304 K by Van't Hoff equation analysis
Homo sapiens [16] = species on record: Homo sapiens; assay: Binding affinity to alpha-glucosidase (unknown origin) assessed as change in gibbs free energy at 310 K by Van't Hoff equation analysis
Mus musculus [17] = species on record: Mus musculus; assay: Hypoglycemic activity in Kunming mouse assessed as reduction in maltose-induced postprandial blood glucose level measured after 15 to 120 mins by maltose loading test; format: functional, organism-based; settings: time min 15-120
Mus musculus [18] = species on record: Mus musculus; assay: Hypoglycemic activity in Kunming mouse assessed as reduction in maltose-induced blood glucose AUC (0 to 120 mins) by maltose loading test; format: functional, organism-based; settings: time min 0-120
Rattus norvegicus [19] = species on record: Rattus norvegicus; assay: Inhibition of alpha-glucosidase in rat everted intestinal sleeves assessed as reduction in glucose concentration outside of the intestinal sleeves at 0.173 mM measured after 5 to 90 mins; format: tissue-based; settings: Intestine, time min 5-90
Homo sapiens [20] = species on record: Homo sapiens; assay: Binding affinity to alpha-glucosidase (unknown origin) assessed as enzyme complexation with compound by measuring mean height of enzyme at 2.5 uM by atomic force microscopy (reference value: 0.87 nm)
Homo sapiens [21] = species on record: Homo sapiens; assay: Binding affinity to alpha-glucosidase (unknown origin) assessed as enzyme complexation with compound at 2.5 uM by measuring mean width of enzyme by atomic force microscopy (reference value: 28.35 nm)
Homo sapiens [22] = species on record: Homo sapiens; assay: Binding affinity to alpha-glucosidase (unknown origin) assessed as quenching constant at 304 K
Homo sapiens [23] = species on record: Homo sapiens; assay: Binding affinity to alpha-glucosidase (unknown origin) assessed as quenching constant at 310 K
Homo sapiens [24] = species on record: Homo sapiens; assay: Binding affinity to alpha-glucosidase (unknown origin) assessed as quenching constant at 298 K
Homo sapiens [25] = species on record: Homo sapiens; assay: Binding affinity to alpha-glucosidase (unknown origin) assessed as decrease in fluorescence intensity of Trp residue without shift in maximum emission wavelength at 0.33-3.22 uM by fluorescence based Synchronous fluorescence spectroscopy; settings: dose microM 0.33-3.22
Homo sapiens [26] = species on record: Homo sapiens; assay: Binding affinity to alpha-glucosidase (unknown origin) assessed as decrease in fluorescence intensity of Tyr residue without shift in maximum emission wavelength at 0.33 to 3.22 uM by fluorescence based Synchronous fluorescence spectroscopy; settings: dose microM 0.33-3.22
Rattus norvegicus [27] = species on record: Rattus norvegicus; assay: Inhibition of alpha-glucosidase in rat everted intestinal sleeves assessed as reduction in blood glucose AUC (0-90) within intestinal sleeves at 0.173 mM; format: tissue-based; settings: Intestine, time min 0-90
Rattus norvegicus [28] = species on record: Rattus norvegicus; assay: Inhibition of alpha-glucosidase in rat everted intestinal sleeves assessed as reduction in blood glucose AUC (0-90) outside of the intestinal sleeves at 0.173 mM; format: tissue-based; settings: Intestine, time min 0-90
Homo sapiens [29] = species on record: Homo sapiens; assay: Binding affinity to alpha-glucosidase (unknown origin) assessed as destabilization of enzyme conformation by measuring induction of protein aggregation at 2.5 uM by atomic force microscopy
Homo sapiens [30] = species on record: Homo sapiens; assay: Binding affinity to alpha-glucosidase (unknown origin) assessed as change in the microenvironment of tyrosine and tryptophan residues at 0.33 to 3.32 uM by fluorescence based Synchronous fluorescence spectroscopy; settings: dose microM 0.33-3.32
Homo sapiens [31] = species on record: Homo sapiens; assay: Binding affinity to alpha-glucosidase (unknown origin) assessed as fluorescence quenching at 0.16 to 1.83 uM by fluorescence spectral analysis; settings: dose microM 0.16-1.83
Homo sapiens [32] = species on record: Homo sapiens; assay: Non-competitive inhibition of alpha-glucosidase (unknown origin) assessed as decrease in Vmax with constant Km at 0.0 to 0.92 uM using p-NPG as substrate by Lineweaver-Burk plot analysis; settings: dose microM 0.0-0.92
Homo sapiens [33] = species on record: Homo sapiens; assay: Binding affinity to alpha-glucosidase (unknown origin) assessed as change in the microenvironment of tyrosine residue by measuring red shift at 0.16 to 1.66 uM by fluorescence based Synchronous fluorescence spectroscopy; settings: dose microM 0.16-1.66
Homo sapiens [34] = species on record: Homo sapiens; assay: Binding affinity to alpha-glucosidase (unknown origin) assessed as change in the microenvironment of tryptophan residue by measuring blue shift at 0.16 to 1.66 uM by fluorescence based Synchronous fluorescence spectroscopy; settings: dose microM 0.16-1.66
Homo sapiens [35] = species on record: Homo sapiens; assay: Binding affinity to alpha-glucosidase (unknown origin) assessed as decrease in fluorescence intensity of Tyr residue without shift in maximum emission wavelength at 0.16 to 1.66 uM by fluorescence based Synchronous fluorescence spectroscopy; settings: dose microM 0.16-1.66
Homo sapiens [36] = species on record: Homo sapiens; assay: Binding affinity to alpha-glucosidase (unknown origin) assessed as decrease in fluorescence intensity at 0.16-1.66 uM by fluorescence based Synchronous fluorescence spectroscopy; settings: dose microM 0.16-1.66

Structure (SMILES): CCCCC(=O)c1ccc(OC(=O)CI)cc1O
- IC50 [1]: Not Active

Structure (SMILES): Cc1cc(C(=O)C(C)C)c(O)c(Br)c1OC(=O)c1ccc(Cl)cc1
- pIC50 [1]: 4.60

Structure (SMILES): Cc1cc(C(=O)C(C)C)c(O)cc1OC(=O)CCl
- pIC50 [1]: 3.86

Structure (SMILES): CCCCCCCC(=O)c1cc(C)c(O)cc1O
- pIC50 [1]: 4.45

Structure (SMILES): CCC(=O)c1cc(C)c(OC(=O)CI)cc1O
- pIC50 [1]: 5.21

Structure (SMILES): CCC(=O)c1ccc(O)cc1O
- IC50 [1]: Not Active

Structure (SMILES): CC(C)C(=O)c1cc(Br)c(OC(=O)CCl)cc1O
- pIC50 [1]: 3.84

Structure (SMILES): CC(C)C(=O)c1cc(Br)c(O)cc1O
- pIC50 [1]: 4.54

Structure (SMILES): CCCCC(=O)Oc1cc(O)c(C(=O)C(C)C)cc1C
- pIC50 [1]: 4.61

Structure (SMILES): CCCCCC(=O)c1cc(C)c(OC(=O)CI)cc1O
- pIC50 [1]: 5.41

Structure (SMILES): CC(C)C(=O)c1cc(Br)c(OC(=O)CBr)cc1O
- pIC50 [1]: 4.82

Structure (SMILES): CCC(=O)c1ccc(OC(=O)CI)cc1O
- IC50 [1]: Not Active

Structure (SMILES): Cc1cc(C(=O)C(C)C)c(O)cc1OC(=O)c1ccccc1Cl
- pIC50 [1]: 4.56

Structure (SMILES): CC(=O)Oc1cc(O)c(C(=O)C(C)C)cc1Br
- IC50 [1]: Not Active

Structure (SMILES): Cc1cc(C(=O)C(C)C)c(O)cc1OC(=O)c1ccc(Br)cc1
- pIC50 [1]: 4.58

Structure (SMILES): Cc1cc(C(=O)C(C)C)c(O)cc1O
- pIC50 [1]: 4.63

Structure (SMILES): Cc1cc(C(=O)C(C)C)c(O)c(Br)c1OC(=O)C(C)(C)C
- pIC50 [1]: 5.73

Structure (SMILES): CC(=O)Oc1c(C)cc(C(=O)C(C)C)c(O)c1Br
- pIC50 [1]: 3.92

Structure (SMILES): CC(C)C(=O)c1ccc(OC(=O)C(C)(C)C)cc1O
- pIC50 [1]: 4.48

Structure (SMILES): CCCCC(=O)c1ccc(O)cc1O
- IC50 [1]: Not Active

Structure (SMILES): CCCCCCCC(=O)c1cc(C)c(OC(=O)CI)cc1O
- deltaG (Homo sapiens [2]): -4.23 kcal/mol
- Ka (Homo sapiens [3]): 1.39 10^4L/mol
- inhibition (Rattus norvegicus [4]): Active
- deltaS (Homo sapiens [5]): 45 J/mol/K
- pIC50 [1]: 5.77
- inhibition (Homo sapiens [6]): Active
- pKi [7]: 5.79
- Activity (Homo sapiens [8]): Active
- KSV (Homo sapiens [9]): 2.27 10^4L/mol
- KSV (Homo sapiens [10]): 1.95 10^4L/mol
- KSV (Homo sapiens [11]): 1.64 10^4L/mol
- Ka (Homo sapiens [12]): 1.34 10^4L/mol
- Ka (Homo sapiens [13]): 1.3 10^4L/mol
- deltaH (Homo sapiens [14]): -1.02 kcal/mol
- deltaG (Homo sapiens [15]): -4.29 kcal/mol
- deltaG (Homo sapiens [16]): -4.36 kcal/mol
- Activity (Mus musculus [17]): Dose-dependent effect
- Activity (Mus musculus [18]): Active
- inhibition (Rattus norvegicus [19]): Active
- Activity (Homo sapiens [20]): 0.75 nm
- Activity (Homo sapiens [21]): 47.5 nm
- Kq (Homo sapiens [22]): 1.95 10^12L/mol/s
- Kq (Homo sapiens [23]): 1.64 10^12L/mol/s
- Kq (Homo sapiens [24]): 2.27 10^12L/mol/s
- Activity (Homo sapiens [25]): Active
- Activity (Homo sapiens [26]): inactive
- inhibition (Rattus norvegicus [27]): Active
- inhibition (Rattus norvegicus [28]): Active
- Activity (Homo sapiens [29]): Active
- Activity (Homo sapiens [30]): inactive

Structure (SMILES): Cc1cc(C(=O)C(C)C)c(O)cc1OC(=O)CBr
- pIC50 [1]: 4.83

Structure (SMILES): CCCCCCCC(=O)c1ccc(O)cc1O
- pIC50 [1]: 4.13

Structure (SMILES): Cc1cc(C(=O)C(C)C)c(O)c(Br)c1OC(=O)c1ccc([N+](=O)[O-])cc1
- pIC50 [1]: 4.69

Structure (SMILES): CCCCCC(=O)c1cc(C)c(O)cc1O
- pIC50 [1]: 4.18

Structure (SMILES): CCCCCC(=O)c1ccc(O)cc1O
- pIC50 [1]: 3.97

Structure (SMILES): Cc1cc(C(=O)C(C)C)c(O)c(Br)c1OC(=O)CI
- Activity (Homo sapiens [31]): Active
- deltaG (Homo sapiens [2]): -8.73 kcal/mol
- Ka (Homo sapiens [3]): 1.56 10^4L/mol
- inhibition (Rattus norvegicus [4]): Active
- deltaS (Homo sapiens [5]): 57 J/mol/K
- pIC50 [1]: 6.24
- inhibition (Homo sapiens [32]): Active
- pKi [7]: 6.19
- KSV (Homo sapiens [9]): 2.98 10^4L/mol
- KSV (Homo sapiens [10]): 2.59 10^4L/mol
- KSV (Homo sapiens [11]): 2.24 10^4L/mol
- Ka (Homo sapiens [12]): 1.45 10^4L/mol
- Ka (Homo sapiens [13]): 1.36 10^4L/mol
- deltaH (Homo sapiens [14]): -4.67 kcal/mol
- deltaG (Homo sapiens [15]): -8.81 kcal/mol
- deltaG (Homo sapiens [16]): -8.89 kcal/mol
- Activity (Homo sapiens [33]): Active
- Activity (Homo sapiens [34]): Active
- Activity (Mus musculus [17]): Dose-dependent effect
- Activity (Mus musculus [18]): Active
- inhibition (Rattus norvegicus [19]): Active
- Activity (Homo sapiens [20]): 3.97 nm
- Activity (Homo sapiens [21]): 29.6 nm
- Activity (Homo sapiens [35]): inactive
- Kq (Homo sapiens [22]): 2.59 10^12L/mol/s
- Kq (Homo sapiens [23]): 2.24 10^12L/mol/s
- Kq (Homo sapiens [24]): 2.98 10^12L/mol/s
- inhibition (Rattus norvegicus [27]): Active
- inhibition (Rattus norvegicus [28]): Active
- Activity (Homo sapiens [36]): Active
- Activity (Homo sapiens [29]): Active

Structure (SMILES): CCC(=O)c1cc(C)c(O)cc1O
- IC50 [1]: Not Active

Structure (SMILES): Cc1cc(C(=O)C(C)C)c(O)cc1OC(=O)CI
- pIC50 [1]: 5.37

Structure (SMILES): Cc1cc(C(=O)C(C)C)c(O)cc1OC(=O)Cc1ccccc1
- pIC50 [1]: 4.59
